Results from the METLIN SMRT retention time set (Domingo-Almenara et al. 2019).

assay: gradient 5% acetonitrile 3 min, to 50% in 2 min, to 85% in 15 min, held 3 min, 100 µL/min; conditions: column: Zorbax Extend-C18 2.1 x 50 mm; eluents: water / acetonitrile, 0.1% formic acid
In short: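 Retention times of pure standards were taken from adduct peaks that were selected by computer and manually inspected. Over 3 months, mixtures of ~100 molecules were run by HPLC–quadrupole time-of-flight mass spectrometry in positive and negative ionization mode. The Zorbax Extend-C18 column (2.1 × 50 mm, 1.8 μm) ran at 100 μL/min in water and acetonitrile, each containing 0.1% formic acid, with 40 μL dead volume and 900 μL dwell volume.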

RP-LC retention time	Structure (SMILES)
998 s	CCN1C(=O)c2ccccc2Oc2ccc(C(=O)NCCc3ccc(Cl)cc3)cc21
830 s	COC(=O)c1cccc(Nc2c(-c3ccc(F)cc3)nc3cnccn23)c1
926 s	COc1ccc(-c2csc(NC(=O)CS(=O)(=O)c3ccc(Cl)cc3)n2)cc1OC
869 s	CC(C)(C)c1ccc(S(=O)(=O)N2CCC(C(=O)NCc3cscn3)CC2)cc1
909 s	COc1ccc(-c2noc(CC3CCN(C(=O)c4cncc(Br)c4)CC3)n2)cc1
1070 s	Cc1ccc(-c2nnc(Cc3nc(-c4ccc5c(c4)OCO5)no3)o2)cc1C
1010 s	O=C(Nc1cccc(Cl)c1)c1ccccn1
1150 s	Cc1nc2cc(-c3noc(-c4cc(Cl)ccc4F)n3)ccc2o1
649 s	CCOC(=O)c1nn(-c2ccccc2)c(=O)cc1NCc1ccccn1
994 s	CC(C)Cn1cc(S(=O)(=O)Nc2ccc(F)c(F)c2)c2cccnc21
563 s	CN1C(=O)C2CCCCN2c2ccc(C(=O)NCc3ccc4c(c3)OCO4)cc21 (stereo not given)
772 s	O=C(NCCn1c(=O)n(Cc2ccc(F)cc2)c2cccnc21)c1cccs1
934 s	CCCC(=O)Nc1nnc(SCc2ccc(Br)cc2)s1
887 s	O=C(O)C1CCN(S(=O)(=O)c2ccc(Cl)c(-c3nnc(-c4ccccc4)o3)c2)CC1
1130 s	COc1cc(OC)cc(-c2noc(Cn3ccn4nc(-c5ccc(Cl)cc5)cc4c3=O)n2)c1
664 s	Cc1cc(N2CCN(S(=O)(=O)c3ccc(F)c(F)c3)CC2)nc(N2CCOCC2)n1
900 s	COc1cccc(Cn2nc3ccc(S(=O)(=O)N4CCC(C)CC4)cn3c2=O)c1
586 s	CCN1CCCC1CNC(=O)c1nnc(Cc2cc(OC)c(OC)c(OC)c2)o1 (stereo not given)
711 s	COc1ccccc1CNC(=O)C1CC(=O)N(c2n[nH]c3cccc(F)c23)C1 (stereo not given)
679 s	COCCNCc1c(C(=O)O)c(C)n(Cc2cccc(Cl)c2)c1C
1080 s	CCCn1c(=O)c2cc(C(=O)Nc3cccc(C)c3)nn2c2ccccc21
762 s	O=C(NCCc1csc(C2CCCN(C(=O)C3(c4ccccc4)CC3)C2)n1)C1CC1 (stereo not given)
935 s	CCCCNC(=O)C1(c2ccc(NC(=O)C(C)C)cc2)CCCCC1

RP-LC retention time	Structure (SMILES)
634 s	COc1ccc(NC(C)=O)cc1NC(=O)C1CC(=O)N(c2n[nH]c3cccc(F)c23)C1 (stereo not given)
595 s	O=C(NCC1CCN(S(=O)(=O)C2CC2)CC1)C1(c2ccc(F)cc2)CC1
570 s	CCOC(=O)c1[nH]c(C)c(CCC(=O)NC(C)C(=O)N2CCCCC2)c1C (stereo not given)
810 s	Cc1nc(C)c(C(=O)Nc2ccc(F)c(C)c2)s1
797 s	Cc1ccc(CC(=O)NC2CCN(c3ccccc3)C2=O)cc1 (stereo not given)
704 s	Cc1cccn2cc(C(=O)NCc3ccc(Cl)cc3)nc12
699 s	CSc1ccc(CNC(=O)c2cn3ccc(C)cc3n2)cc1
654 s	CC(=O)N1CCc2[nH]c3ccc(C(=O)Nc4ccc(N5CCOCC5)cc4)cc3c2C1
943 s	O=C(c1[nH]nc2c1COc1ccccc1-2)N1CC(c2noc(COc3ccc(F)cc3)n2)C1
666 s	COc1cccc(CNC(=O)Cn2cnc3nc(N4CCCC(C(=O)NC5CC5)C4)sc3c2=O)c1 (stereo not given)
678 s	CN1C(=O)c2cccn2CC1CNS(=O)(=O)Cc1ccccc1 (stereo not given)
669 s	Cc1c(C(=O)O)sc2nc(SCC(=O)Nc3ccccc3C(F)(F)F)[nH]c(=O)c12
883 s	Cc1cccc(CSc2nnc3c(S(=O)(=O)N4CCCC4)cccn23)c1
809 s	CCn1cnc(S(=O)(=O)N2CCCC(C(=O)Nc3ccc(C)cc3Cl)C2)c1 (stereo not given)
1040 s	COC1C(=O)N(c2cccc(F)c2)C12CCN(S(=O)(=O)Cc1ccccc1F)CC2 (stereo not given)
920 s	CC(C)CNC(=O)c1cn(-c2cc(-c3nc(C(C)C)no3)ccn2)cn1
651 s	O=C(NCCCn1c(-c2ccncc2)nc2cccnc21)Nc1cccc(F)c1
1070 s	COc1ccc(-c2nnc(-c3ccc(Cl)c(S(=O)(=O)N4CCCCC4)c3)o2)cc1OC
937 s	Cc1nn(CC(=O)NC2CCCc3ccccc32)c(=O)c2c(C)n(-c3ccccc3)nc12 (stereo not given)
770 s	O=C(Cc1ccc(F)cc1)NC1CCN(c2ccccc2)C1=O (stereo not given)
829 s	O=C(N[C@H]1C[C@@H]2C[C@H]1N(C(=O)COc1cccc(Cl)c1)C2)c1ccccc1
922 s	Cc1ccc(Cl)cc1N1CCN(C(=O)C2CC(=O)c3ccccc32)CC1 (stereo not given)
682 s	COc1cccc(-n2cc(C(=O)O)nn2)c1

RP-LC retention time	Structure (SMILES)
861 s	Cc1[nH]c(C(=O)N2CCCC(C(=O)NC3CCCCC3)C2)c(C)c1C(=O)OC(C)C (stereo not given)
937 s	O=C(Nc1ccccc1Br)N[C@@H]1CCN(c2ccc(C(F)(F)F)cn2)C1
764 s	Cc1nc2ccccc2nc1NS(=O)(=O)c1ccc(N)cc1
841 s	CC1(C(=O)NCc2ccc(F)cc2)CN(S(C)(=O)=O)CC(=O)N1Cc1ccc(F)cc1 (stereo not given)
645 s	Cc1ccccc1Cn1c(CNC(=O)Cc2ccccc2)nc2ccccc21
760 s	CC1=C(c2cccc(Cl)c2)S(=O)(=O)N=C1N1CCCN(C(=O)c2ccccn2)CC1
1060 s	CCCN1C(=O)c2cc(S(=O)(=O)Nc3cccc(F)c3)ccc2Oc2cccnc21
821 s	COc1cccc(CNC(=O)C2CCCN2S(=O)(=O)c2ccc3c(c2)C(C)(C)C(=O)N3C)c1 (stereo not given)
560 s	COCC1(O)CCOC2(CCN(Cc3cccc(Cl)c3F)CC2)C1 (stereo not given)
773 s	Cc1ccc(NC(=O)NCC2CCOCC2)cc1Cl
1360 s	CCOc1ccc(-c2csc(Cc3nc(-c4ccc(Cl)cc4)no3)n2)cc1
819 s	O=S(=O)(Cc1ccccc1)N1CCC[C@H]1c1nc(-c2ccc(F)cc2)n[nH]1
883 s	Cc1oc(-c2ccc(NC(=O)CC(C)(C)C)cc2)nc1Cn1cccn1
786 s	O=C(NC1CC1)[C@@H]1C[C@H](Oc2ccccc2)CN1C(=O)Cn1c(=O)oc2ccccc21
750 s	COc1ccc(OC)c(CNC(=O)Cc2cccn2-c2ccc(C)cc2)c1
639 s	Cc1cc(N2CCN(C(=O)c3ccc(Cl)cc3)CC2)nc(N2CCOCC2)n1
664 s	CCNC(=O)CN1C(=O)CCSc2ccccc21
619 s	O=C(NCc1cc(F)ccc1F)C1CCN(c2cncnc2N2CCOCC2)CC1
846 s	Cc1cccc(-n2c(=O)c3c(cc(C)n3C)n(CC(=O)Nc3cccc(C#N)c3)c2=O)c1
752 s	O=C(Nc1ccccc1C(F)(F)F)N1CCC(N2CCN(Cc3ccc(F)cc3)C(=O)C2=O)CC1
634 s	CN(CC(=O)Nc1ccc(F)cc1)C(=O)C1CCN(c2cnn(C)c(=O)c2)C1 (stereo not given)
1040 s	COCCCNS(=O)(=O)c1ccccc1-c1nc(-c2cccc(F)c2)no1
818 s	O=C(O)CCCC(=O)Nc1nc(-c2cccc3ccccc23)cs1

RP-LC retention time	Structure (SMILES)
920 s	CCOc1ccccc1-n1ccn(Cc2nc(-c3ccc(C)cc3)no2)c(=O)c1=O
845 s	CCc1ccc(NC(=O)Cn2c(C)nc3onc(C)c3c2=O)cc1
638 s	O=C(c1ccc(CN2C(=O)CCn3nc(-c4ccccc4)cc32)cc1)N1CCN(c2ccccn2)CC1
870 s	CCC(C)NC(=O)CN1c2ccc(F)cc2-c2ccccc2S1(=O)=O (stereo not given)
645 s	COCC1CN(C2CCC2)CC12CCN(C(=O)c1ccc(C)s1)CC2 (stereo not given)
789 s	O=C(NCc1ccc(F)cc1F)c1csc(C(=O)NC2CC2)n1
646 s	Cc1ccc2c(c1)C1CC(C)(O2)N(c2cccc(C(=O)NCc3ccccn3)c2)C(=O)N1 (stereo not given)
816 s	COc1ccc(OC)c(NC(=O)C(C)Oc2ccc(=O)n(-c3ccc(F)cc3)n2)c1 (stereo not given)
793 s	CC1=C(c2ccc(F)cc2)S(=O)(=O)N=C1N1CCCN(C(=O)NCC(C)C)CC1
670 s	CC(=O)Nc1ccc(SCCCC(=O)Nc2ncc([N+](=O)[O-])s2)nn1
730 s	O=C(Cc1ccc(F)cc1)Nc1cc(-c2cccnc2)no1
1110 s	CCCCOc1ccc(C(=O)Nc2cc(OC)ccc2OC)cc1
542 s	O=C(Cn1ncccc1=O)NCc1ccco1
570 s	O=C(NCCCn1cccn1)c1cn2ccccc2n1
574 s	O=C(C1CCC1)N1CCCC(CN2CCOCC2)CC1 (stereo not given)
781 s	Cc1ccccc1NC(=O)NC1CCN(c2ccccc2)C1=O (stereo not given)
725 s	N#Cc1ccsc1NC(=O)c1ccc2ncsc2c1
642 s	CN(C)C(=O)c1n[nH]c2c1CN(C(=O)c1cccc(Cl)c1)CC2
709 s	O=c1c2ccccc2c(-c2nc(-c3cccnc3)no2)cn1-c1cccc(F)c1
810 s	COC(=O)CNC(=O)Nc1ccccc1-c1cc2ccccc2[nH]1

Structure (SMILES)	RP-LC retention time
CCc1nc(-c2csc(S(=O)(=O)N3CCC(C(=O)N4CCC5(CC4)OCCO5)CC3)c2)no1	816 s
